Holding throughout (type): biochemical
In test [1] the target is T1, PI3K α (Homo sapiens, UniProt P42336).
T1 construct: purchased Upstate
The experiment in a line: In vitro IC50, PI3K α. The source says:
(§1) An exemplary system is PI 3-Kinase (human) HTRF™ Assay from Upstate.

The target of test [2] is PI3K δ (Homo sapiens, UniProt O00329). The experiment in a line: In vitro IC50, PI3K δ. Further details: purchased Upstate.
Source text: as §1

The target of test [3] is T2, PI3K γ (Homo sapiens, UniProt P48736).
T2 construct: purchased Sigma
The experiment in a line: In vitro IC50, PI3K γ.
Source text: as §1

Test [4] deals with PI3K β (Homo sapiens, UniProt P42338). The experiment in a line: In vitro IC50, PI3K β.
Source text: as §1

Structures are written as SMILES.

As a reminder, the IC50 is the concentration that inhibits the measured activity by half. A high value points to lower potency.

Chain of PI3K δ (O00329 whole entry): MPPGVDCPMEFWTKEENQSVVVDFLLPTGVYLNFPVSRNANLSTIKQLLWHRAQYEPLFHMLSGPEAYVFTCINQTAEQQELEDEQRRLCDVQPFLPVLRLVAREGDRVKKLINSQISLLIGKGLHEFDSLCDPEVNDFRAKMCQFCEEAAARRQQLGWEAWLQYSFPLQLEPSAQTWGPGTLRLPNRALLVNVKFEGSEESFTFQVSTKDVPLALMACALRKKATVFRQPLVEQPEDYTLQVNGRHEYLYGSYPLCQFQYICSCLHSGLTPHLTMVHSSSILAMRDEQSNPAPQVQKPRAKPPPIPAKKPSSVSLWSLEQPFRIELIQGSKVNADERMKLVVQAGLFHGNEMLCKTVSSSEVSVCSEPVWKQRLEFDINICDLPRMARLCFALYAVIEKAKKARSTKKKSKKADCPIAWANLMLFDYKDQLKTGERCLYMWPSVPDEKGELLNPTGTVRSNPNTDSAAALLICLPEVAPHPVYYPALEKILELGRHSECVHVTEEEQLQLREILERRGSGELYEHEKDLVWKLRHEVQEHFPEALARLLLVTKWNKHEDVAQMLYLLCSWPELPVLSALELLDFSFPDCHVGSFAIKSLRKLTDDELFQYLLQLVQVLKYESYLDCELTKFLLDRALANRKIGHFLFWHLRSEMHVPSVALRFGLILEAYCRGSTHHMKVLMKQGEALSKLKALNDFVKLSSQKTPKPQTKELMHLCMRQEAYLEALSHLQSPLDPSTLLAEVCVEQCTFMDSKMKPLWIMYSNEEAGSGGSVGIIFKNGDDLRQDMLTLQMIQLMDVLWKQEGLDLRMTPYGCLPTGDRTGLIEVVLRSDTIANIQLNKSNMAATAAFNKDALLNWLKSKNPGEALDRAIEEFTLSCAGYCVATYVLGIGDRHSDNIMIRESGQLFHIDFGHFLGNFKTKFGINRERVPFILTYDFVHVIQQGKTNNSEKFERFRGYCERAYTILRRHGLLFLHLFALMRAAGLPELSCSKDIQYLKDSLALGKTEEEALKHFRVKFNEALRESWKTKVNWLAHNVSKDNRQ
Chain of PI3K δ (P27986 whole entry partner): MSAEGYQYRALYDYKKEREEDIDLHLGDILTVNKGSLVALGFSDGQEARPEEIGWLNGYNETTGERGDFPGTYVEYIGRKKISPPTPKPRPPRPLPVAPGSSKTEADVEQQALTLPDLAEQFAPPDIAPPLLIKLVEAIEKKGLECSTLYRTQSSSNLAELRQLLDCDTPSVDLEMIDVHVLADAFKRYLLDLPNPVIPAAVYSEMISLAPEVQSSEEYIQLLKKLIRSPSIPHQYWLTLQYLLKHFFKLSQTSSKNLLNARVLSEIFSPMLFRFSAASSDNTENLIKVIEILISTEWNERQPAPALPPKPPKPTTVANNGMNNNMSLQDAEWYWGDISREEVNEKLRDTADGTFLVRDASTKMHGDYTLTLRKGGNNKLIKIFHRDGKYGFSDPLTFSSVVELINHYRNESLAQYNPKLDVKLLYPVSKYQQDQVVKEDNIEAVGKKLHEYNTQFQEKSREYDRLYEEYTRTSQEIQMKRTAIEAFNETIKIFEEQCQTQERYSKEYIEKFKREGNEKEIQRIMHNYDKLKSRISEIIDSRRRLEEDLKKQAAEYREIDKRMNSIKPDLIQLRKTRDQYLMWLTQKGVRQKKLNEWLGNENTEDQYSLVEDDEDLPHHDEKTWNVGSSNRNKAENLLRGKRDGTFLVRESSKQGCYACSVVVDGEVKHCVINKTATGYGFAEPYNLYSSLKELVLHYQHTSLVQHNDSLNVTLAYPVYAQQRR
T1 sequence (P42336 whole entry): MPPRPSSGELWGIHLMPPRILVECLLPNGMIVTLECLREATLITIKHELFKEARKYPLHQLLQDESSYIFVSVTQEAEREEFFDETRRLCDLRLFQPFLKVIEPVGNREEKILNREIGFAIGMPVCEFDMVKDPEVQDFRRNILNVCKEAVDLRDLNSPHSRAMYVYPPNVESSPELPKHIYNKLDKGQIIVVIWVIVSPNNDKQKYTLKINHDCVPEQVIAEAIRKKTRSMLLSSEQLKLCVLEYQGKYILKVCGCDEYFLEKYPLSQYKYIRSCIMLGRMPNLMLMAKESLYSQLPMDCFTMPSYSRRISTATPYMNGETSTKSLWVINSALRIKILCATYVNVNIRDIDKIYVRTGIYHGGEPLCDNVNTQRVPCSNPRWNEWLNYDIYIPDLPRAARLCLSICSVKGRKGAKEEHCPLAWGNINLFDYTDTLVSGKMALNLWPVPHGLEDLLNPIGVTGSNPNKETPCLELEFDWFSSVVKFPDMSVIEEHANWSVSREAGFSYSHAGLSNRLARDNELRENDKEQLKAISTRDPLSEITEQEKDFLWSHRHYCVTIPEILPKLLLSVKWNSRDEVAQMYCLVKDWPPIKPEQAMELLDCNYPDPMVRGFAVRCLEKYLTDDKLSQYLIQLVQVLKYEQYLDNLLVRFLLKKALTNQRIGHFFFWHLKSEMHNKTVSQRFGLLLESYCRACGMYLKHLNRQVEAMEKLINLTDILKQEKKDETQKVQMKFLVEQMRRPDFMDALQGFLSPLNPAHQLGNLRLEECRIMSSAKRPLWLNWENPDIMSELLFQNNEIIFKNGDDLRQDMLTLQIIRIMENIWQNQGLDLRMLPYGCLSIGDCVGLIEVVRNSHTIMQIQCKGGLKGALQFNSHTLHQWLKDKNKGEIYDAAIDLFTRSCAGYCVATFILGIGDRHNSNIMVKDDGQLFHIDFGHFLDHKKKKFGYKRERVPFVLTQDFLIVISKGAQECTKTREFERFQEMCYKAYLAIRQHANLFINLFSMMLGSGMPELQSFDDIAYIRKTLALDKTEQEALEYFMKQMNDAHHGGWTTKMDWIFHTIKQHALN
T1 sequence (P27986 whole entry partner): as the sequence (P27986 whole entry partner) above
T2 sequence (P48736 whole entry): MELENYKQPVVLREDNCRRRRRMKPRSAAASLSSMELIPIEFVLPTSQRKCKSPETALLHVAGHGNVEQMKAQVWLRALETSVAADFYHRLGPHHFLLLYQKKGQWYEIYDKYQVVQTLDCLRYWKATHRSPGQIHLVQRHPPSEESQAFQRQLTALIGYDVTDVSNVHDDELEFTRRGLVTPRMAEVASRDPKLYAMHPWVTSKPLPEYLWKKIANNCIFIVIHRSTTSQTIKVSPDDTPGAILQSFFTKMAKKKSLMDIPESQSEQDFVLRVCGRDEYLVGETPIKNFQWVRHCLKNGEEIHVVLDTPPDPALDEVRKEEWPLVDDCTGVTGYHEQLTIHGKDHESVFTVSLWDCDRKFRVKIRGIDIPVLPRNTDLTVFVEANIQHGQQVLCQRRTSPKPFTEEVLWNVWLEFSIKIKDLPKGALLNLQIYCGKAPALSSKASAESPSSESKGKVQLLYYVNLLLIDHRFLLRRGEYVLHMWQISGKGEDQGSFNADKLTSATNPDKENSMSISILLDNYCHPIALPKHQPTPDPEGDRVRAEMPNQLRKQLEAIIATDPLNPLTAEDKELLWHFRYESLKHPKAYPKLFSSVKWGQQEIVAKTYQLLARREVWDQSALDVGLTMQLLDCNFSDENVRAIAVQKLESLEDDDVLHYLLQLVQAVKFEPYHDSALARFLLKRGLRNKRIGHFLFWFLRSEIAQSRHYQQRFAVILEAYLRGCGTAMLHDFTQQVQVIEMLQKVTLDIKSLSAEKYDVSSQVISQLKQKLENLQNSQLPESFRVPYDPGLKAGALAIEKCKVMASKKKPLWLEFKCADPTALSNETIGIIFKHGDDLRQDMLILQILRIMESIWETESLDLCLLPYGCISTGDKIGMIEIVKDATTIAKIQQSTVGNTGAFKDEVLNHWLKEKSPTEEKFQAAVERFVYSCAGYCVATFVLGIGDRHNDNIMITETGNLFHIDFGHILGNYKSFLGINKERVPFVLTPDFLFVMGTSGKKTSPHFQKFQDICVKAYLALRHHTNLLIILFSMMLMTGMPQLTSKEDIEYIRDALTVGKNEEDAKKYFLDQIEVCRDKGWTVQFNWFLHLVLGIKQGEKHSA
Chain of PI3K β (P42338 whole entry): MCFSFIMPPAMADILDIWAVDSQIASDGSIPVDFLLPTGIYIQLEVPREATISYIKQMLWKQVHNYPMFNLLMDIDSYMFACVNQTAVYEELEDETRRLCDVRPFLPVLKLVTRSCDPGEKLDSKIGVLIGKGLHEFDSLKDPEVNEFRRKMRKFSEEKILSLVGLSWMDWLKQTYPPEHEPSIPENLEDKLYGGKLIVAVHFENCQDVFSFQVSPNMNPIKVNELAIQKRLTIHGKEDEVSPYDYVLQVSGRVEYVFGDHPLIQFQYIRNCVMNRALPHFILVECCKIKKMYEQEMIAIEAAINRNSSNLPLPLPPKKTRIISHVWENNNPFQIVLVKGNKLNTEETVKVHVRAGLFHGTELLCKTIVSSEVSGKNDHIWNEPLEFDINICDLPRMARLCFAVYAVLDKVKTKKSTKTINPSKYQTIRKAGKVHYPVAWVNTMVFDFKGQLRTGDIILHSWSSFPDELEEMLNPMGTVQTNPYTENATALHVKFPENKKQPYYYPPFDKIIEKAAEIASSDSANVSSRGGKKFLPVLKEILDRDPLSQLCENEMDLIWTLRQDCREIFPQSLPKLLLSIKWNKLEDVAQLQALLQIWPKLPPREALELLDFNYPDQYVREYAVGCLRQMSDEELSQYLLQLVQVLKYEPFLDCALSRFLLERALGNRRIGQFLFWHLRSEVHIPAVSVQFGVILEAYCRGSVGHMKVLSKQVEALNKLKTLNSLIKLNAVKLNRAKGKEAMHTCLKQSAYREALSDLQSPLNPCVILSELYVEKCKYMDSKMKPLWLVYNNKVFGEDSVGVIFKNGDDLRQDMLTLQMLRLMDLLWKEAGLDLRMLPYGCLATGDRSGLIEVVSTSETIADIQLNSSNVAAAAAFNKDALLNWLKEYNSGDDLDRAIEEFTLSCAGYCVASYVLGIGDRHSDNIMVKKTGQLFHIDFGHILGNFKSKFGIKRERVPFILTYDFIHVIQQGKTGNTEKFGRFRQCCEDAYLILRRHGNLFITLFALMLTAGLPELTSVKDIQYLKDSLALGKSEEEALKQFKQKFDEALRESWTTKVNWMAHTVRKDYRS

`Cc1ccccc1-n1c(Cn2nc(-c3ccc4cc[nH]c4c3)c3c(N)ncnc32)cc2cccc(C)c2c1=O` [Compound 50]: the results for the IC50 in test [1], in test [2] and in test [3] were more than 10000 nM, less than 100 nM and less than 100 nM, respectively.

For `Cc1ccccc1-n1c(Cn2nc(CC#N)c3c(N)ncnc32)cc2cccc(C)c2c1=O` [Compound 312], the IC50 in test [4] was more than 10000 nM; in test [2], less than 100 nM; in test [3] it was less than 10000 nM.

For `Cc1ccccc1-n1c(Cn2nc(-c3cccc(O)c3)c3c(N)ncnc32)cc2ccccc2c1=O` [Compound 51], the IC50 in test [1] is more than 10000 nM; in test [2], less than 100 nM; in test [3], less than 1000 nM.

As to `Cc1ccncc1-n1c(Cn2nc(I)c3c(N)ncnc32)cc2cccc(C)c2c1=O` [Compound 78], the IC50 in test [4] is more than 10000 nM; in test [2], less than 100 nM; in test [3], less than 1000 nM.

As to `Cc1cccc2cc([C@H](C)NC(=O)c3cnn4ccccc34)n(-c3ccccc3)c(=O)c12` [Compound 241], the IC50 in test [1] was more than 10000 nM; in test [2], more than 10000 nM; in test [3], less than 10000 nM.

With `Cc1ccccc1-n1c(Cn2nc(CO)c3c(N)ncnc32)cc2cccc(C)c2c1=O` [Compound 313], the figures for the IC50 in test [1], in test [2] and in test [3] were more than 10000 nM, less than 1000 nM and less than 10000 nM, respectively.

As to `CNc1ncc(Cl)c(N[C@@H](C)c2cc3cccc(C)c3c(=O)n2-c2ccccc2)n1` [Compound 250], the IC50 in test [1] was more than 10000 nM; in test [2], less than 1000 nM; in test [3], less than 1000 nM.

`CC(=O)c1nn(Cc2cc3cccc(C)c3c(=O)n2-c2ccccc2)c2ncnc(N)c12` [Compound 319]: the figures for the IC50 in test [1], in test [2] and in test [3] were more than 10000 nM, less than 1000 nM and less than 10000 nM, respectively.

Regarding `Cc1nc2c(N[C@@H](C)c3cc4cccc(C)c4c(=O)n3-c3ccccc3)ncnc2[nH]1` [Compound 242], the IC50 was more than 10000 nM in test [1], less than 10000 nM in test [2] and less than 10000 nM in test [3].

For the compound `Cc1ccccc1-n1c(Cn2nc(C#C[C@@H](C)O)c3c(N)ncnc32)cc2ccccc2c1=O` [Compound 32], the IC50 in test [1] was more than 10000 nM; in test [2], less than 1000 nM.

For `CNC(=O)Nc1nc2ccc(-c3nn(Cc4cc5cccc(C)c5c(=O)n4-c4ccccc4C)c4ncnc(N)c34)cc2s1` [Compound 148], the IC50 in test [1], in test [2] and in test [3] was less than 100 nM each time.

Consider `Cc1ccccc1-n1c(Cn2nc(I)c3c(N)ncnc32)cc2ccccc2c1=O` [Compound 31], for which the IC50 in test [1] was more than 10000 nM; in test [2], less than 1000 nM; in test [3] it was less than 100 nM.

Turning to `Cc1cccc2cc([C@H](C)Nc3c(C#N)cnc4ccccc34)n(-c3ccccc3)c(=O)c12` [Compound 246], the IC50 in test [1] was more than 10000 nM; in test [2], less than 10000 nM; in test [3], less than 10000 nM.

For `Cc1cccc2cc(Cn3nc(-c4ccc5nc(N)[nH]c5c4)c4c(N)ncnc43)n(-c3ccccc3)c(=O)c12` [Compound 302], the IC50 in test [2] and in test [3] was less than 100 nM throughout.

With `COc1ccc(-c2nn(Cc3cc4cccc(C)c4c(=O)n3-c3ccccc3F)c3ncnc(N)c23)cc1OC` [Compound 47], the 50% inhibitory concentration (IC50) in test [1] is more than 10000 nM; in test [2], less than 1000 nM; in test [3] it was less than 1000 nM.

In the case of `CNC(=O)c1nn(Cc2cc3cccc(C)c3c(=O)n2-c2ccccc2)c2ncnc(N)c12` [Compound 309], the IC50 is more than 10000 nM in test [1], less than 1000 nM in test [2] and less than 10000 nM in test [3].

Regarding `Cc1cccc2cc([C@H](C)Nc3ncnc4[nH]cnc34)n(-c3ccccc3)c(=O)c12` [Compound 196], the IC50 in test [2] and in test [3] was less than 100 nM throughout.

For the compound `Cc1cccc2cc(Cn3nc(C(N)=O)c4c(N)ncnc43)n(-c3ccccc3)c(=O)c12` [Compound 307], the IC50 was less than 1000 nM in test [2] and less than 10000 nM in test [3].

Consider `Cc1cccc2cc([C@H](C)Nc3nc(F)nc4[nH]cnc34)n(-c3ccccc3)c(=O)c12` [Compound 245], for which the IC50 was less than 10000 nM in test [1], less than 100 nM in test [2] and less than 100 nM in test [3].

With `Cc1cccc2cc([C@@H](C)Nc3ncnc4[nH]cnc34)n(-c3ccccc3)c(=O)c12` [Compound 195], the IC50 in test [2] and in test [3] was less than 10000 nM in each case.

Consider `Cc1cccc2cc(C(C)Nc3ncnc4[nH]cnc34)n(-c3ccccc3F)c(=O)c12` (stereo not drawn) [Compound 203], for which, in test [1], the IC50 is less than 10000 nM.

`Cc1ccccc1-n1c(Cn2nc(-c3cnc4[nH]ccc4c3)c3c(N)ncnc32)cc2cccc(C)c2c1=O` [Compound 48]: the IC50 is more than 10000 nM in test [1], less than 100 nM in test [2] and less than 100 nM in test [3].

Consider `Cc1cccc2cc(C(C)Nc3ncnc4[nH]cnc34)n(C3CCOCC3)c(=O)c12` (stereo not drawn) [Compound 234], for which the IC50 is less than 100 nM in test [2] and less than 1000 nM in test [3].

On to `Cc1cccc2cc(C(C)Nc3ncnc4[nH]cnc34)n(C3CCCC3)c(=O)c12` (stereo not drawn) [Compound 231], for which the IC50 in test [2] and in test [3] was less than 100 nM throughout.

`Cc1ccccc1-n1c(Cn2nc(-c3ccc(Cl)cc3)c3c(N)ncnc32)cc2cccc(C)c2c1=O` [Compound 49]: the IC50 is more than 10000 nM in test [1], less than 1000 nM in test [2] and less than 1000 nM in test [3].

Turning to `C=Cc1nn(Cc2cc3cccc(C)c3c(=O)n2-c2ccccc2)c2ncnc(N)c12` [Compound 301], the IC50 in test [2] is less than 100 nM; in test [3], less than 1000 nM.

On to `Cc1cccnc1-n1c(Cn2nc(I)c3c(N)ncnc32)cc2cccc(C)c2c1=O` [Compound 15], for which the IC50 was more than 10000 nM in test [1], less than 1000 nM in test [2] and less than 1000 nM in test [3].

Turning to `Cc1cccnc1-n1c(Cn2nc(Br)c3c(N)ncnc32)cc2cccc(C)c2c1=O` [Compound 17], the IC50 was more than 10000 nM in test [1], less than 1000 nM in test [2] and less than 10000 nM in test [3].

In the case of `Cc1cccc2cc(C(C)Nc3ncnc4[nH]cnc34)n(CCN3CCOCC3)c(=O)c12` (stereo not drawn) [Compound 232], the figures for the IC50 in test [2] and in test [3] were less than 100 nM and less than 10000 nM, respectively.

In the case of `Cc1cccc2cc([C@@H](C)Nc3ncnc4[nH]cnc34)n(C3CC3)c(=O)c12` [Compound 199], the IC50 in test [2] and in test [3] was more than 10000 nM throughout.

On to `CCC(Nc1ncnc2[nH]cnc12)c1cc2cccc(C)c2c(=O)n1-c1c(F)cccc1F` (stereo not drawn) [Compound 217], for which the IC50 in test [4] is more than 10000 nM; in test [2], less than 10000 nM.

`Cc1ccccc1-n1c(Cn2nc(-c3cc(O)cc(F)c3)c3c(N)ncnc32)cc2ccccc2c1=O` [Compound 33]: the IC50 was more than 10000 nM in test [1], less than 100 nM in test [2] and less than 100 nM in test [3].

With `Cc1cccc2cc([C@H](C)Nc3ncnc4[nH]ncc34)n(-c3ccccc3)c(=O)c12` [Compound 258], the IC50 in test [1] is more than 10000 nM; in test [2] it was less than 1000 nM; in test [3], less than 10000 nM.

Regarding `Cc1ccccc1-n1c(Cn2nc(Cl)c3c(N)ncnc32)cc2cccc(C)c2c1=O` [Compound 20], the IC50 was more than 10000 nM in test [1], less than 100 nM in test [2] and less than 1000 nM in test [3].

Regarding `Cc1cccc2cc(C(C)Nc3ncnc4[nH]cnc34)n(-c3cccc(F)c3)c(=O)c12` (stereo not drawn) [Compound 229], the IC50 in test [2] is less than 100 nM; in test [3] it was less than 1000 nM.

In the case of `Cc1cccc2cc([C@H](C)Nc3ncnc4[nH]cnc34)n(C(C)C)c(=O)c12` [Compound 230], the IC50 in test [2] and in test [3] was less than 100 nM each time.

`Cc1cccnc1-n1c(Cn2nc(-c3cc(O)cc(F)c3)c3c(N)ncnc32)cc2cccc(C)c2c1=O` [Compound 16]: the results for the IC50 in test [1], in test [2] and in test [3] were more than 10000 nM, less than 100 nM and less than 100 nM, respectively.

Turning to `Cc1ccccc1-n1c(Cn2nc(Br)c3c(N)ncnc32)cc2cccc(C)c2c1=O` [Compound 19], the IC50 was more than 10000 nM in test [1], less than 100 nM in test [2] and less than 100 nM in test [3].

In the case of `COc1ccc(-c2nn(Cc3cc4cccc(C)c4c(=O)n3-c3ccccc3C)c3ncnc(N)c23)cc1` [Compound 45], the IC50 is more than 10000 nM in test [1], less than 1000 nM in test [2] and less than 100 nM in test [3].

For the compound `COCc1nn(Cc2cc3cccc(C)c3c(=O)n2-c2ccccc2C)c2ncnc(N)c12` [Compound 314], the IC50 in test [1], in test [2] and in test [3] was more than 10000 nM throughout.

Take `Cc1ccccc1-n1c(Cn2nc(C(F)F)c3c(N)ncnc32)cc2cccc(C)c2c1=O` [Compound 306]: the IC50 in test [2] and in test [3] was less than 100 nM each time.

In the case of `Cc1cccnc1-n1c(Cn2nc(I)c3c(N)ncnc32)cc2ccccc2c1=O` [Compound 92], the IC50 in test [2] and in test [3] was less than 10000 nM in each case.

Consider `Cc1cccnc1-n1c(Cn2nc(Cl)c3c(N)ncnc32)cc2cccc(C)c2c1=O` [Compound 18], for which the results for the IC50 in test [1], in test [2] and in test [3] were more than 10000 nM, less than 1000 nM and more than 10000 nM, respectively.

Turning to `Cc1ccccc1-n1c(Cn2nc(-c3ccc(O)c(F)c3)c3c(N)ncnc32)cc2cccc(C)c2c1=O` [Compound 30], the IC50 in test [1] is more than 10000 nM; in test [2] it was less than 100 nM; in test [3], less than 100 nM.

`Cc1cccc2cc(Cn3nc(-c4ccc5nc(N)cn5c4)c4c(N)ncnc43)n(-c3ccccc3)c(=O)c12` [Compound 239]: the IC50 in test [1] is more than 10000 nM; in test [2], less than 1000 nM; in test [3], less than 10000 nM.

Take `Cc1cccc2cc(Cn3nc(C(C)(C)O)c4c(N)ncnc43)n(-c3ccccc3)c(=O)c12` [Compound 318]: the IC50 in test [1], in test [2] and in test [3] was more than 10000 nM throughout.

For the compound `Cc1cccc2cc(Cn3nc(-c4ccc5nc(N)oc5c4)c4c(N)ncnc43)n(-c3ccccc3)c(=O)c12` [Compound 236], the IC50 in test [2] and in test [3] was less than 1000 nM throughout.
